Series [1] concerns MDA-MB-231 (subclone 2LMP) breast cancer cell line. Put plainly: Cell growth inhibition, MDA-MB-231 (subclone 2LMP). In kind it is cell-based, human. As for the experimental part:
(§1) A direct comparison of (−)-gossypol, apogossypol and apogossypolone for their activity in inhibition of cell growth in PC-3 and LnCap prostate cancer cell lines was carried out.
(§2) Additional cell growth inhibition studies were performed using the MDA-MB-231 (subclone 2LMP), T47D, and MDA-MB-435 breast cancer cell lines. Racemic gossypol, apogossypol, apogossypolone, (+)-apogossypol, (−)-apogossypol, and tetra-acetyl apogossypolone (Formula VIII) were tested as described above.

Series [2] deals with MDA-MB-435 breast cancer cell line. As to the kind of experiment: Cell growth inhibition, MDA-MB-435. Format: cell-based, human. How it is done:
as §1, §2

The subject of series [3] is T47D breast cancer cell line. Put plainly: Cell growth inhibition, T47D. Format: cell-based, human. As for the experimental part: as §1, §2
For series [4], the system named is PC-3 prostate cancer cell line. As to the kind of experiment: Inhibition of cell growth, MTT assay, PC-3. Format: cell-based, human. As to conditions: for IC50: PC-3 cells, 4-6 day MTT assay, read-out: IC50, inhibition of cell growth. How it is done: as §1
(In general: Tetrazolium dyes change colour on reduction, which living cells bring about.)

Series [5] relates to LnCap prostate cancer cell line. Put plainly: Inhibition of cell growth, MTT assay, LnCap. In kind it is cell-based. As to conditions: LnCap cell line; read-out: IC50, inhibition of cell growth. How it is done:
as §1

Series [6] can be described thus: Maximal tolerated dose (MTD) in mice. Format: in vivo. As for the experimental part:
To confirm this prediction, the maximal tolerated dose (MTD) of apogossypolone and (−)-gossypol was evaluated in mice using two different routes of administrations (oral and intravenous). For oral administration (oral gavage 5 days/week), the MTD of apogossypolone was above 240 mg/kg while the MTD for (−)-gossypol was about 50 mg/kg. For intravenous administration (every other day and 3 days/week), the MTD of apogossypolone was about 80 mg/kg while the MTD for (−)-gossypol was about 10 mg/kg. In both routes of administration, the MTD of apogossypolone was 8-times better than (−)-gossypol.

For series [7], the target named is T1, human Mcl-1 protein (amino acids 171-327) (Homo sapiens, UniProt Q07820).
T1 construct: The fragment encoding amino acids 171-327 was cloned into the pHis-TEV vector; 8xHis (N); made in house; host or cells: E. coli BL21(DE3)
T1 sequence (Q07820 171-327): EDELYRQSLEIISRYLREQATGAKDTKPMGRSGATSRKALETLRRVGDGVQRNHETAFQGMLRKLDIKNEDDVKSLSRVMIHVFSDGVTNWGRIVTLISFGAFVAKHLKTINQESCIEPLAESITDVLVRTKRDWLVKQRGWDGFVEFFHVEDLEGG
As to the kind of experiment: Fluorescence polarization binding assay for the Mcl-1 protein (Flu-Bid-21 probe). For orientation: In fluorescence polarisation assays a small probe gives low polarisation when free and higher when bound to something large.

In a further series the target is recombinant human Bcl-2 (Homo sapiens, UniProt P10415). Put plainly: Fluorescence polarization binding assay for Bcl-2 (Bid-FAM peptide displacement).
Sequence of recombinant human Bcl-2 (P10415 92-205 limits assumed): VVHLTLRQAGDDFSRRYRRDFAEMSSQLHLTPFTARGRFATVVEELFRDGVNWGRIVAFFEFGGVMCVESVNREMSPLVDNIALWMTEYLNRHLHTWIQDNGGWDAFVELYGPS
Series [8] is described as follows: Storage stability of the sample. Format: physicochemical. As to conditions: stored at −20° C. and under nitrogen.
The mark [9] stands for this setting: Homo sapiens, MDA-MB-231, read-out: IC50 (μM) MDA-MB-231.
Where [10] appears, read: Homo sapiens, MDA-MB-435, read-out: IC50 (μM) MDA-MB-435.
Setting [11] is: Homo sapiens, T47D, read-out: IC50 (μM) T47D.
[12] abbreviates: MDA-MB-231 (subclone 2LMP), read-out: IC50 (μM) MDA-MB-231.
Where [13] appears, read: MDA-MB-435; read-out: IC50 (μM) MDA-MB-435.
[14] abbreviates: FP-based binding assay, Ki calculated from IC50 with modified Cheng-Prusoff equation, read-out: Ki.

Read-outs that look alike come from different tables or passages of the source. Where only a bound is given, the exact number is not on record here.

The IC50 is the concentration needed to halve the response being measured. With `Cc1cc2c(C(C)C)c(O)c(O)c(C=O)c2c(O)c1-c1c(C)cc2c(C(C)C)c(O)c(O)c(C=O)c2c1O` (racemic) [(±)-Gossypol, gossypol], the half-inhibitory concentration (IC50) in series [1] (setting [9]) is 11.1 µM; in series [2] (setting [10]), 11.4 µM; in series [3] (setting [11]) it was 16.3 µM.
As to `Cc1cc2c(C(C)C)c(O)c(O)cc2c(O)c1-c1c(C)cc2c(C(C)C)c(O)c(O)cc2c1O` [(+)-Apogossypol, (+)-apogossypol], the values for the IC50 in series [1] (setting [12]), in [2] (setting [13]) and in [3] (T47D; read-out: IC50 (μM) T47D) were 8.81 µM, 7.28 µM and 14 µM, respectively.
Turning to `Cc1cc2c(C(C)C)c(O)c(O)cc2c(O)c1-c1c(C)cc2c(C(C)C)c(O)c(O)cc2c1O` [(−)-Apogossypol, (−)-apogossypol], the IC50 is 2.31 µM in [1] (setting [12]), 3.13 µM in series [2] (setting [13]) and 4.26 µM in [3] (T47D; read-out: IC50 (μM) T47D).
The term Ki denotes the equilibrium dissociation constant of an inhibitor or competing ligand from its target. In the case of `Cc1cc2c(C(C)C)c(O)c(O)c(C=O)c2c(O)c1-c1c(C)cc2c(C(C)C)c(O)c(O)c(C=O)c2c1O` [(−)-gossypol, reference compound], the IC50 in series [4] is 6.5 µM; in series [5], 4.7 µM. Moreover, the “maximal tolerated dose (MTD)” value is “about 10 mg/kg” in series [6] (intravenous, every other day and 3 days/week); “about 50 mg/kg” in [6] (oral gavage 5 days/week). Also, in series [7] (FP competitive binding, unit inferred, read-out: Ki to Mcl-1), the Ki came out at 0.18 ± 0.01 µM.
For `CC[C@H](C)[C@H](NC(=O)[C@H](CC(N)=O)NC(=O)[C@H](CCCNC(=N)N)NC(=O)[C@@H](NC(=O)[C@@H](NC(=O)[C@H](CC(=O)O)NC(=O)[C@H](CCC(=O)O)NC(=O)[C@H](CCC(N)=O)NC(=O)c1ccc2c(c1)C1(OC2=O)c2ccc(O)cc2Oc2cc(O)ccc21)[C@@H](C)CC)[C@@H](C)CC)C(=O)N[C@@H](C)C(=O)N[C@@H](CCCNC(=N)N)C(=O)N[C@@H](Cc1c[nH]cn1)C(=O)N[C@@H](CC(C)C)C(=O)N[C@@H](C)C(=O)N[C@@H](CCC(N)=O)C(=O)N[C@H](C(=O)NCC(=O)N[C@@H](CC(=O)O)C(=O)N[C@@H](CO)C(=O)N[C@@H](CCSC)C(=O)N[C@@H](CC(=O)O)C(=O)N[C@@H](CCCNC(=N)N)C(=O)O)C(C)C` [Flu-Bid-21], the Kd in [7] (probe concentration 0.5 nM, read-out: apparent Kd for Mcl-1) worked out at 0.0007 µM; in series [7] (probe concentration 1 nM, saturation experiment, read-out: Kd for Mcl-1), 0.00083 µM; in [7] (probe concentration 2.5 nM, read-out: apparent Kd for Mcl-1), 0.00105 µM; in series [7] (probe concentration 5 nM, read-out: apparent Kd for Mcl-1), 0.00132 µM.
With `CC(=O)Oc1cc2c(c(C(C)C)c1OC(C)=O)C(=O)C(C)=C(C1=C(C)C(=O)c3c(cc(OC(C)=O)c(OC(C)=O)c3C(C)C)C1=O)C2=O` [Tetra acetyl apogossypolone, tetra-acetyl apogossypolone], the IC50 in series [1] (Homo sapiens, MDA-MB-231 (subclone 2LMP), read-out: IC50 (μM) MDA-MB-231) was found to be 1.32 µM; in series [2] (Homo sapiens, MDA-MB-435; read-out: IC50 (μM) MDA-MB-435), 6.29 µM; in series [3] (Homo sapiens, T47D; read-out: IC50 (μM) T47D), 6.33 µM.
As to `Cc1cc2c(C(C)C)c(O)c(O)cc2c(O)c1-c1c(C)cc2c(C(C)C)c(O)c(O)cc2c1O` [apogossypol], the Ki on recombinant human Bcl-2 was found to be 0.2 µM. Further, the “potency relative to (−)-gossypol in inhibition of cell growth” value in [4] (PC-3 cell line, 3-5 independent experiments) is on record as “as potent as (−)-gossypol”. The IC50 was determined as 2.37 µM in series [1] (setting [9]), 3.39 µM in series [2] (setting [10]) and 6.51 µM in [3] (setting [11]). Moreover, the “fold more potent than gossypol” value in series [1] (MDA-MB-231 cell line) is “about 5 fold”; in series [2] (MDA-MB-435 cell line), “about 3 fold”; in series [3] (T47D cell line), “about 2.5 fold”. The “time in which the sample decomposed” value in series [8] is at most 1 week.
On to `Cc1cc2c(C(C)C)c(O)c(O)c(C(=O)O)c2c(O)c1-c1c(C)cc2c(C(C)C)c(O)c(O)c(C(=O)O)c2c1O` [gossypolic acid], for which the Ki on recombinant human Bcl-2 (setting [14]) is 0.12 µM. In addition, the IC50 in [4] (Homo sapiens) is over 10 µM.
Turning to `CC1=C(C2=C(C)C(=O)c3c(c(C(=O)O)c(O)c(O)c3C(C)C)C2=O)C(=O)c2c(C(=O)O)c(O)c(O)c(C(C)C)c2C1=O` [gossypolonic acid], the Ki on recombinant human Bcl-2 (setting [14]) was 0.28 µM. The IC50 in series [4] (Homo sapiens) was over 10 µM.
`CC[C@H](C)[C@H](NC(=O)[C@H](CC(N)=O)NC(=O)[C@H](CCCN=C(N)N)NC(=O)[C@@H](NC(=O)[C@@H](NC(=O)[C@H](CC(=O)O)NC(=O)[C@H](CCC(=O)O)NC(=O)[C@@H](N)CCC(N)=O)[C@@H](C)CC)[C@@H](C)CC)C(=O)N[C@@H](C)C(=O)N[C@@H](CCCN=C(N)N)C(=O)N[C@@H](Cc1c[nH]cn1)C(=O)N[C@@H](CC(C)C)C(=O)N[C@@H](C)C(=O)N[C@@H](CCC(N)=O)C(=O)N[C@H](C(=O)NCC(=O)N[C@@H](CC(=O)O)C(=O)N[C@@H](CO)C(=O)N[C@@H](CCSC)C(=O)N[C@@H](CC(=O)O)C(=O)N[C@@H](CCCN=C(N)N)C(=O)O)C(C)C` [unlabeled Bid 21mer peptide] registered a Ki in [7] of 0.0057 ± 0.0011 µM.
